According to patent publication US20240148714A1, “Triple Negative Breast Cancer Treatment Method” (Exelixis, Inc., priority 2016, published 2024):
Entries after “also recorded” stand apart in the source; their conditions may differ.

System: circulating mononuclear cells
Assay: Circulating cell biomarkers by flow cytometry in serial blood samples
Type: in vivo, human
Method: Experimental design: In this single-arm, two-stage phase 2 study, patients with metastatic TNBC with measurable disease by RECIST and up to 3 lines of prior chemotherapy for metastatic disease received cabozantinib 60 mg daily on a 21-day cycle. Patients were restaged 6 weeks following treatment initiation and every 9 weeks thereafter. The primary endpoint was objective response rate (ORR). Predefined secondary endpoints included progression free survival (PFS) and toxicity. Here, we examined cellular biomarkers using flow cytometry in serial blood samples collected at days 0 (baseline/pre-treatment), 8, 22, 43, and 64 of cabozantinib treatment. Mixed effect models were used to evaluate the changes of biomarker levels over time from baseline to day 64. Wilcoxon signed rank test were used to evaluate whether the change of biomarker levels from baseline to day 8 were different by clinical benefit. Adjusted p-values controlling false discovery rate were used to adjust for multiple comparisons.
The primary endpoint was the activity of cabozantinib, as defined by objective response rate (ORR) in patients with mTNBC. Predefined secondary endpoints included progression-free survival (PFS), toxicity, and pain. Correlative studies included analysis of MET and phospho-MET expression in archival tumor tissue, and molecular and cellular biomarkers of cabozantinib. Cellular biomarkers were examined using flow cytometry in serial blood samples collected at days 0 (baseline/pre-treatment), 8, 22, 43, and 64 of cabozantinib treatment. Mixed effect models were used to evaluate the changes of biomarker levels over time from baseline to day 64. Wilcoxon signed rank test were used to evaluate whether the change of biomarker levels from baseline to day 8 were different by clinical benefit. Adjusted p-values controlling false discovery rate were used to adjust for multiple comparisons.
Circulating Biomarker Assays: Potential biomarkers of cabozantinib activity were identified by measuring plasma proteins at baseline, on day 8 of therapy, on day 1 of each cycle of therapy, and, if available, at the time of progression. Eight milliliters of blood was collected in purple top (plasma EDTA) vacutainers and shipped on wet ice to a Clinical Laboratory Improvement Amendments-certified core in the Steele Laboratories (Massachusetts General Hospital), where whole blood was separated by centrifugation into cellular fraction and plasma. The fraction of stem/progenitor cell, lymphocyte, and myeloid populations of total circulating mononuclear cells were counted by flow cytometry using a LSR-II cytometer and FACSDiva software in fresh blood samples using the following markers: CD3, CD4, CD8, CD14, CD25, CD34, CD45, CD56, CD127, and CD133 (Becton Dickinson, Franklin Lakes, NJ, www.bd.com). Plasma was prepared in the standard fashion and stored at −78° C. until collection and analysis of all samples. The biomarkers measured included VEGF, placental growth factor (PlGF), VEGF-C, VEGF-D, soluble VEGFR1 (sVEGFR1), basic fibroblast growth factor (bFGF), and sTie-2 (using a 7-plex Growth Factor array) and granulocyte-macrophage colony stimulating factor (GM-CSF), interferon gamma (IFN-g), tumor necrosis factor alpha (TNF-a), and interleukin-1beta (IL-1b), IL-2, IL-6, IL-8, IL-10, and IL-12 heterodimer p70 (using a 9-plex Inflammatory Factor array; both Meso Scale Discovery, Gaithersburg, MD, www.mesoscale.com); and HGF, sMET, carbonic anhydrase IX (CAIX), stromal cell-derived factor 1 a (SDF1a), and sVEGFR2 by single analyte enzyme-linked immunosorbent assay (R&D Systems, Minneapolis, MN, www.rndsystems.com).
Descriptive statistics were used to summarize biomarker values at protocol-specific time points. […] The Wilcoxon signed rank test assessed biomarker change from day 1 to 8. Mixed effects linear models assessed the change in biomarker values at days 1, 8, 22, 43, and 64; values beyond day 64 were not analyzed because of the small number of patients still on protocol. […]

[1] = after cabozantinib, baseline to day 64

SMILES: COc1cc2nccc(Oc3ccc(NC(=O)C4(C(=O)Nc5ccc(F)cc5)CC4)cc3)c2cc1OC [cabozantinib]
- CD3+ (lymphocytes), Median (Day 1 (baseline)): 34.73 % of WBC
- CD3 + CD8 − CD4 + CD25+, Median (Day 1 (baseline)): 0.66 % of WBC
- CD3 + CD8 − CD4 + CD25−, Median (Day 1 (baseline)): 11.41 % of WBC
- CD3 + CD8 − CD4+, Median (Day 1 (baseline)): 0.15 % of WBC
- CD3 + CD56+ (NKT cells), Median (Day 1 (baseline)): 0.77 % of WBC
- CD3 − CD56+ (NK cells), Median (Day 1 (baseline)): 5.84 % of WBC
- CD14+ (monocytes), Median (Day 1 (baseline)): 42.20 % of WBC
- CD34 + CD133+ cells, Median (Day 1 (baseline)): 0.17 % of WBC
- CD3+ (lymphocytes), Median (Day 8): 24.06 % of WBC
- CD3 + CD8 − CD4 + CD25+, Median (Day 8): 0.79 % of WBC
- CD3 + CD8 − CD4 + CD25−, Median (Day 8): 14.18 % of WBC
- CD3 + CD8 − CD4+, Median (Day 8): 0.17 % of WBC
- CD3 + CD56+ (NKT cells), Median (Day 8): 0.85 % of WBC
- CD3 − CD56+ (NK cells), Median (Day 8): 7.27 % of WBC
- CD14+ (monocytes), Median (Day 8): 31.44 % of WBC
- CD34 + CD133+ cells, Median (Day 8): 0.11 % of WBC
- CD3+ (lymphocytes), Median (Day 22): 33.56 % of WBC
- CD3 + CD8 − CD4 + CD25+, Median (Day 22): 0.59 % of WBC
- CD3 + CD8 − CD4 + CD25−, Median (Day 22): 16.41 % of WBC
- CD3 + CD8 − CD4+, Median (Day 22): 0.18 % of WBC
- CD3 + CD56+ (NKT cells), Median (Day 22): 0.54 % of WBC
- CD3 − CD56+ (NK cells), Median (Day 22): 8.51 % of WBC
- CD14+ (monocytes), Median (Day 22): 19.03 % of WBC
- CD34 + CD133+ cells, Median (Day 22): 0.12 % of WBC
- CD3+ (lymphocytes), Median (Day 43): 32.79 % of WBC
- CD3 + CD8 − CD4 + CD25+, Median (Day 43): 0.73 % of WBC
- CD3 + CD8 − CD4 + CD25−, Median (Day 43): 17.71 % of WBC
- CD3 + CD8 − CD4+, Median (Day 43): 0.19 % of WBC
- CD3 + CD56+ (NKT cells), Median (Day 43): 1.02 % of WBC
- CD3 − CD56+ (NK cells), Median (Day 43): 6.50 % of WBC
- CD14+ (monocytes), Median (Day 43): 24.79 % of WBC
- CD34 + CD133+ cells, Median (Day 43): 0.18 % of WBC
- CD3+ (lymphocytes), Median (Day 64): 30.99 % of WBC
- CD3 + CD8 − CD4 + CD25+, Median (Day 64): 0.61 % of WBC
- CD3 + CD8 − CD4 + CD25−, Median (Day 64): 15.29 % of WBC
- CD3 + CD8 − CD4+, Median (Day 64): 0.19 % of WBC
- CD3 + CD56+ (NKT cells), Median (Day 64): 0.98 % of WBC
- CD3 − CD56+ (NK cells), Median (Day 64): 8.13 % of WBC
- CD14+ (monocytes), Median (Day 64): 23.48 % of WBC
- CD34 + CD133+ cells, Median (Day 64): 0.11 % of WBC
- change in CD4+ cells (CD3+CD4+CD8− T) [1]: trend for increase; also recorded: nonsignificant trend toward increase
- change in CD14+ monocytes [1]: persistent decrease
- change in CD56+ NK cells (CD3−CD56+ NK lymphocytes) [1]: trend for increase; also recorded: nonsignificant trend toward increase
- change in circulating CD3+ cells [1]: significant increase; also recorded: persistent increase
- change in circulating CD8+ T cells (CD3+CD4−CD8+ T lymphocytes) [1]: significant increase
- change in fraction of CD3+CD56+ NKT cells (baseline to day 64): no significant changes
- change in fraction of CD4+CD25+ Tregs (baseline to day 64): no significant changes
- change in fraction of CD4+CD127+ memory T cells (baseline to day 64): no significant changes
- change in fraction of CD133+ progenitor/stem cells (baseline to day 64): no significant changes
- effect on circulating cell biomarkers (summary) (metastatic TNBC patients): systemic changes consistent with activation of the immune system
